According to patent publication US11261201B2 (priority 2018, dated 2022):
Converted amounts (≈) assume the structure as drawn. Where a name gives a salt, the structure may show the parent alone. Read-outs that look alike come from different tables or passages of the source.

Tests used:
H37RvMA = test: Tuberculosis Alamar Blue/Resazurin assay (MIC); type: cell-based; details: Mycobacterium tuberculosis, H37RV, read-out: WT H37Rv MTB Activity
E. coli = test: Gram negative MIC protocol (OD600, LB, 24 h); details: Escherichia coli
Procedure: (§1) Overnight bacterial cultures were grown in LB with no added antibiotics at 37° C. with shaking. A 1:1000 dilution of these cultures into LB was exposed to concentration gradients of compounds in 96-well plates (100 μL per well assay volume). Resulting plates were incubated at 37° C. for 24 h without shaking, and OD600 was measured at the end of the incubation. MICs were determined as the lowest concentrations at which OD600 remained at baseline.

A. baumannii = test: Gram negative MIC protocol (OD600, LB, 24 h); details: Acinetobacter baumannii
Procedure: as §1

[1] = read-out: MIC E. coli delta-TolC LB Media, E. coli delta-TolC strain, LB media, 24 h, OD600
[2] = read-out: MIC WT E. coli LB Media, wild-type E. coli, LB media, 24 h, OD600
[3] = read-out: MIC A. baumannii LB Media, A. baumannii, LB media, 24 h, OD600
[4] = read-out: MIC E. coli delta-TolC LB Media, E. coli delta-TolC, LB media, OD600
[5] = read-out: MIC WT E. coli LB Media, WT E. coli, LB media, OD600
[6] = read-out: MIC A. baumannii LB Media

Row | Compound | MIC (H37RvMA; WT H37Rv MTB) | MIC (E. coli; [1]) | MIC (E. coli; [2]) | MIC (A. baumannii; [3]) | MIC (E. coli; [4]) | MIC (E. coli; [5]) | MIC (H37RvMA) | MIC (A. baumannii; [6])
1 | CC(CC1CCCCC1)NCc1ccccc1OC1CCCCC1C (stereo not shown) [B389, 1-cyclohexyl-N-(2-((2-methylcyclohexyl)oxy)benzyl)propan-2-amine] | 33.4 µM (≈ 11.5 µg/mL) | 3 µM (≈ 1.03 µg/mL) | > 150 µM | 91 µM (≈ 31.3 µg/mL) |  |  |  | 
2 | CC(CC1CCCCC1)NCc1ccccc1OC1CC2CCC1C2 (stereo not shown) [B390, N-(2-(bicyclo[2.2.1]heptan-2-yloxy)benzyl)-1-cyclohexylpropan-2-amine] | 20.2 µM (≈ 6.9 µg/mL) | 3 µM (≈ 1.02 µg/mL) | 150 µM (≈ 51.2 µg/mL) | 55 µM (≈ 18.8 µg/mL) |  |  |  | 
3 | CC1CCCC(Oc2ccccc2CNC(C)CC2CCCCC2)C1 (stereo not shown) [B391, 1-cyclohexyl-N-(2-((3-methylcyclohexyl)oxy)benzyl)propan-2-amine] | 20.2 µM (≈ 6.94 µg/mL) | 3 µM (≈ 1.03 µg/mL) | 150 µM (≈ 51.5 µg/mL) | 91 µM (≈ 31.3 µg/mL) |  |  |  | 
4 | CCC1CCCCC1Oc1ccccc1CNC(C)CC1CCCCC1 (stereo not shown) [B392, 1-cyclohexyl-N-(2-((2-ethylcyclohexyl)oxy)benzyl)propan-2-amine] | 33.4 µM (≈ 11.9 µg/mL) | 7 µM (≈ 2.5 µg/mL) | > 150 µM | 150 µM (≈ 53.6 µg/mL) |  |  |  | 
5 | CC(CC1CCCCC1)NCc1ccccc1OC1CC2CC1C1CCCC21 (stereo not shown) [B393, 1-cyclohexyl-N-(2-((octahydro-1H-4,7-methanoinden-5-yl)oxy)benzyl)propan-2-amine] | 20.2 µM (≈ 7.71 µg/mL) | 7 µM (≈ 2.67 µg/mL) | > 150 µM | 150 µM (≈ 57.2 µg/mL) |  |  |  | 
6 | CC1CCC(Oc2ccccc2CNC(C)CC2CCCCC2)CC1 (stereo not shown) [B394, 1-cyclohexyl-N-(2-((4-methylcyclohexyl)oxy)benzyl)propan-2-amine] | 20.2 µM (≈ 6.94 µg/mL) | 3 µM (≈ 1.03 µg/mL) | 150 µM (≈ 51.5 µg/mL) | 55 µM (≈ 18.9 µg/mL) |  |  |  | 
7 | CC(CC1CCCCC1)NCc1ccccc1OC1CC2CCC1CC2 (stereo not shown) [B395, N-(2-(bicyclo[2.2.2]octan-2-yloxy)benzyl)-1-cyclohexylpropan-2-amine] | 20.2 µM (≈ 7.18 µg/mL) | 3 µM (≈ 1.07 µg/mL) | > 150 µM | 33 µM (≈ 11.7 µg/mL) |  |  |  | 
8 | CC(CC1CCCCC1)NCc1ccccc1OC1CCC(F)(F)CC1 (stereo not shown) [B396, 1-cyclohexyl-N-(2-((4,4-difluorocyclohexyl)oxy)benzyl)propan-2-amine] | 55.1 µM (≈ 20.1 µg/mL) | 3 µM (≈ 1.1 µg/mL) | 150 µM (≈ 54.8 µg/mL) | 150 µM (≈ 54.8 µg/mL) |  |  |  | 
9 | CC(CC1CCCCC1)NCc1ccccc1NCc1ccccc1F (stereo not shown) [B397, 2-(((1-cyclohexylpropan-2-yl)amino)methyl)-N-(2-fluorobenzyl)aniline dihydrochloride] | 12.2 µM | 5 µM | > 150 µM | > 150 µM |  |  |  | 
10 | CC(CC1CCCCC1)NCc1ccccc1NC(=O)c1ccccc1F (stereo not shown) [B398, N-(2-(((1-cyclohexylpropan-2-yl)amino)methyl)phenyl)-2-fluorobenzamide hydrochloride] | 150 µM |  |  | > 150 µM | 91 µM | > 150 µM |  | 
11 | CC(CC1CCCCC1)NCc1ccccc1CCC(N)=O (stereo not shown) [B399, 3-(2-((1-cyclohexylpropan-2-ylamino)methyl)phenyl)propanamide trifluoroacetate] |  |  |  |  | 20 µM | 150 µM | > 150 µM | > 150 µM
12 | COC(=O)CCc1ccccc1CNC(C)CC1CCCCC1 (stereo not shown) [B400, methyl 3-(2-((1-cyclohexylpropan-2-ylamino)methyl)phenyl)propanoate hydrochloride] | > 150 µM |  |  | > 150 µM | 55 µM | > 150 µM |  | 
13 | CC(CC1CCCCC1)NCc1ccccc1CCC(=O)O (stereo not shown) [B401, 3-(2-((1-cyclohexylpropan-2-ylamino)methyl)phenyl)propanoic acid trifluoroacetate] |  |  |  |  | 33 µM | > 150 µM | > 150 µM | > 150 µM
14 | O=C1NCC(COc2ccccc2CNCCC2=CCCCC2)O1 (stereo not shown) [B402] | > 150 µM |  |  | > 150 µM | 33 µM (≈ 10.9 µg/mL) | 150 µM (≈ 49.6 µg/mL) |  | 
15 | CC(CC1CCCCC1)NCc1ccccc1OCC1CNC(=O)C1 (stereo not shown) [B403] | > 150 µM |  |  | > 150 µM | 7 µM (≈ 2.41 µg/mL) | > 150 µM |  | 
16 | CC(CC1CCCCC1)NCc1ccccc1OC1C2CC3CC(C2)CC1C3 [B404, N-(2-(((1R,3S,5r,7r)-adamantan-2-yl)oxy)benzyl)-1-cyclohexylpropan-2-amine] | 20.2 µM (≈ 7.71 µg/mL) |  |  | 150 µM (≈ 57.2 µg/mL) | 7 µM (≈ 2.67 µg/mL) | > 150 µM |  | 

Row | Compound | MIC (H37RvMA; WT H37Rv MTB) | MIC (E. coli; [1]) | MIC (E. coli; [2]) | MIC (A. baumannii; [3]) | MIC (E. coli; [4]) | MIC (E. coli; [5]) | MIC (H37RvMA) | MIC (A. baumannii; [6])
17 | CC(CC1CCCCC1)NCc1ccccc1Oc1ccccc1F (stereo not shown) [B405, 1-cyclohexyl-N-(2-(2-fluorophenoxy)benzyl)propan-2-amine] | 33.4 µM (≈ 11.4 µg/mL) |  |  | 150 µM (≈ 51.2 µg/mL) | 5 µM (≈ 1.71 µg/mL) | 91 µM (≈ 31.1 µg/mL) |  | 
18 | CNc1cccc(CNCCC2CCCCC2)c1 [B406, 3-(((2-cyclohexylethyl)amino)methyl)-N-methylaniline] | 150 µM (≈ 37 µg/mL) |  |  | > 150 µM | > 150 µM | > 150 µM |  | 
19 | CC(CC1CCCCC1)NCc1ccccc1SCC1CN(C)C(=O)O1 (stereo not shown) [B407, 5-(((2-(((1-cyclohexylpropan-2-yl)amino)methyl)phenyl)thio)methyl)-3-methyl oxazolidin-2-one] | > 150 µM |  |  | > 150 µM | 7 µM (≈ 2.64 µg/mL) | 150 µM (≈ 56.5 µg/mL) |  | 
20 | CC(CC1CCCCC1)NCc1ccccc1OCc1ccc(F)cc1 (stereo not shown) [B408, 1-cyclohexyl-N-(2-((4-fluorobenzyl)oxy)benzyl)propan-2-amine] | 12.2 µM (≈ 4.34 µg/mL) |  |  | 55 µM (≈ 19.6 µg/mL) | 2 µM (≈ 0.711 µg/mL) | 55 µM (≈ 19.6 µg/mL) |  | 
21 | CC(CC1CCCCC1)NCc1ccccc1OCc1ccccc1 (stereo not shown) [B409, N-(2-(benzyloxy)benzyl)-1-cyclohexylpropan-2-amine] | 12.2 µM (≈ 4.12 µg/mL) |  |  | 55 µM (≈ 18.6 µg/mL) | 3 µM (≈ 1.01 µg/mL) | 55 µM (≈ 18.6 µg/mL) |  | 
22 | O=C1Cc2ccccc2CN1CCC1CCSCC1 [B410, 2-(2-(tetrahydro-2H-thiopyran-4-yl)ethyl)-1,4-dihydroisoquinolin-3(2H)-one] | > 150 µM |  |  | > 150 µM | > 150 µM | > 150 µM |  | 
23 | O=C1Cc2ccccc2CN1CCC1=CCCCC1 [B411, 2-(2-(cyclohex-1-en-1-yl)ethyl)-1,4-dihydroisoquinolin-3(2H)-one] | 7.4 µM (≈ 1.89 µg/mL) |  |  | > 150 µM | 150 µM (≈ 38.3 µg/mL) | > 150 µM |  | 
24 | CC(CC1CCCCC1)N1Cc2ccccc2CC1=O (stereo not shown) [B412, 2-(1-cyclohexylpropan-2-yl)-1,4-dihydroisoquinolin-3(2H)-one] | 7.4 µM (≈ 2.01 µg/mL) |  |  | > 150 µM | 55 µM (≈ 14.9 µg/mL) | > 150 µM |  | 
25 | CC(CN1Cc2ccccc2CC1=O)C1CCCCC1 (stereo not shown) [B413, 2-(2-cyclohexylpropyl)-1,4-dihydroisoquinolin-3(2H)-one] | 7.4 µM (≈ 2.01 µg/mL) |  |  | > 150 µM | 55 µM (≈ 14.9 µg/mL) | > 150 µM |  | 
26 | CC(CC1CCCCC1)NCc1ccccc1CS(N)(=O)=O (stereo not shown) [B414, (2-(((1-cyclohexylpropan-2-yl)amino)methyl)phenyl)methanesulfonamide] | > 150 µM |  |  | 150 µM (≈ 48.7 µg/mL) | 4 µM (≈ 1.3 µg/mL) | 20 µM (≈ 6.49 µg/mL) |  | 
27 | CC1CCCCC1CCN1Cc2ccccc2CC1=O (stereo not shown) [B415, 2-(2-(2-methylcyclohexyl)ethyl)-1,4-dihydroisoquinolin-3(2H)-one] | 1.26 µM (≈ 0.341 µg/mL) |  |  | > 150 µM | 55 µM (≈ 14.9 µg/mL) | > 150 µM |  | 
28 | O=C1Cc2ccccc2CN1CCCC1CCCCC1 [B416, 2-(3-cyclohexylpropyl)-1,4-dihydroisoquinolin-3(2H)-one] | 2.5 µM (≈ 0.679 µg/mL) |  |  | > 150 µM | 55 µM (≈ 14.9 µg/mL) | > 150 µM |  | 
29 | c1ccc2c(c1)CCN(CCC1CCCCC1)C2 [B417, 2-(2-cyclohexylethyl)-1,2,3,4-tetrahydroisoquinoline] |  |  |  |  | > 150 µM | > 150 µM | > 150 µM | > 150 µM
30 | O=C1Cc2ccccc2CN1C1CCCCC1 [B418, 2-cyclohexyl-1,4-dihydroisoquinolin-3(2H)-one] | > 150 µM |  |  | > 150 µM | > 150 µM | > 150 µM |  | 
31 | O=C1c2ccccc2CN1CCC1CCCCC1 [B419, 2-(2-cyclohexylethyl)isoindolin-1-one] | 0.6 µM (≈ 0.146 µg/mL) |  |  | > 150 µM | 150 µM (≈ 36.5 µg/mL) | > 150 µM |  | 
